What all share (test): microbe, parasite or virus in culture
What all share (set-up): species or system Candida albicans strains; Sensititre YeastOne SYO-09 colorimetric microdilution, visual MIC at >=50% growth inhibition
On the technique in general: Dilution methods test growth across graded concentrations, often in twofold steps.

The subject of test [1] is T1, Candida albicans ATCC90028.
T1 construct: ATCC 90028
The note with it: ATCC90028, 24 h. The method, then:
(§1) Minimum inhibitory concentrations (MICs) of 5-FUrd were determined by broth microdilution method in accordance with the guidelines in Clinical and Laboratory Standards Institute (CLSI) document M27[25], using RPMI 1640 medium containing 0.165 M MOPs (pH 7.0) and 0.2% glucose, an inoculum of 10^3 cells/well, and incubated for 24 hr at 35°C, followed by OD600 reading by TECAN SPARK plate reader. The MIC50 of 5-FUrd was determined as the lowest dosage of 5-FUrd causing 50% inhibition of the growth by using the concentrations in the range of 0.004-2μg/mL. MICs of […] of human use (5-FC; four azoles: posaconazole, voriconazole, itraconazole, fluconazole; and three echinocandins: anidulafungin, caspofungin and micafungin) were determined by the microdilution colorimetric Sensititre YeastOne SYO-09 panel (TREK Diagnostic Systems, Cleveland, OH, USA); in accordance with the manufacturer’s instructions. MICs values were determined visually, after 24 hours of incubation, as the lowest concentration of drug that caused complete inhibition (amphotericin B) or a significant diminution (≥50% inhibition; flucytosine, azoles and echinocandins) of growth relative to that of the growth control. Table 2. Minimum inhibitory concentrations of 5-FUrd and antifungal drugs of clinical used for pathogenic and drug-resistant isolates of Candida albicans^a

The test system of test [2] is T2, Candida albicans F2014a093.
T2 construct: F2014a093
The conditions noted are these: F2014A093, 24 h. The method, then: as §1

Test [3] has as its system T3, Candida albicans F2014f090.
T3 construct: F2014f090
The note with it: F2014F090, 24 h. The procedure:
as §1

Test [4] deals with T4, Candida albicans F2015b076.
T4 construct: F2015b076
The note with it: F2015B076, 24 h. The procedure:
as §1

The subject of test [5] is T5, Candida albicans F2015f019.
T5 construct: F2015f019
The conditions noted are these: F2015F019, 24 h. The method, then: as §1

Test [6] relates to T6, Candida albicans F2016a067.
T6 construct: F2016a067
The note with it: F2016A067, 24 h. The method, then: as §1

Test [7] concerns T7, Candida albicans F2016c087.
T7 construct: F2016c087
The note with it: F2016C087, 24 h. The procedure: as §1

In test [8] the test system is T8, Candida albicans F2016e085.
T8 construct: F2016e085
The conditions noted are these: F2016E085, 24 h. The method, then:
as §1

The test system of test [9] is T9, Candida albicans F2016f024.
T9 construct: F2016f024
The conditions noted are these: F2016F024, 24 h. The method, then: as §1

The subject of test [10] is T10, Candida albicans F2016g048.
T10 construct: F2016g048
The note with it: F2016G048, 24 h. The procedure:
as §1

The subject of test [11] is T11, Candida albicans F2017g023.
T11 construct: F2017g023
The note with it: F2017G023, 24 h. The method, then:
as §1

For test [12], the system named is T12, Candida albicans SC5314.
T12 construct: SC5314
The note with it: SC5314, 24 h. The method, then:
as §1

Setting [13] is: read-out: Itraconazole MIC (µg/mL).
Where [14] appears, read: read-out: Fluconazole MIC (µg/mL).
The mark [15] stands for this setting: read-out: Posaconazole MIC (µg/mL).
Setting [16] is: read-out: Voriconazole MIC (µg/mL).

SMILES strings stand for the structures. Converted amounts (≈) assume the structure as drawn. Where two headings read alike, the source gives them in different places.

For the compound `CCC(C)n1ncn(-c2ccc(N3CCN(c4ccc(OC[C@H]5CO[C@](Cn6cncn6)(c6ccc(Cl)cc6Cl)O5)cc4)CC3)cc2)c1=O` (mixture of isomers) [Itraconazole, itraconazole], the MIC in test [1] (setting [13]) is 0.06 µg/mL; in [2] (setting [13]), > 16 µg/mL; in test [3] (setting [13]), > 16 µg/mL; in [4] (setting [13]) it was 0.5 µg/mL; in [5] (setting [13]) it was 0.12 µg/mL; in [6] (setting [13]) it was > 16 µg/mL. In addition, the MIC in [7] (setting [13]) was determined as 0.12 µg/mL; in [8] (setting [13]), 0.03 µg/mL; in [9] (setting [13]), 0.12 µg/mL; in [10] (setting [13]), 1 µg/mL; in test [11] (setting [13]), 0.06 µg/mL; in [12] (setting [13]), 0.06 µg/mL.
For the compound `Nc1[nH]c(=O)ncc1F` [5-FC, 5-flucytosine], the MIC worked out at 0.5 µg/mL (≈ 3.87 µM) in test [1] (read-out: 5-FC MIC (µg/mL)); 0.03 µg/mL (≈ 0.232 µM) in test [2] (read-out: 5-FC MIC (µg/mL)); 0.12 µg/mL (≈ 0.93 µM) in test [3] (read-out: 5-FC MIC (µg/mL)); 0.03 µg/mL (≈ 0.232 µM) in test [4] (read-out: 5-FC MIC (µg/mL)); 0.03 µg/mL (≈ 0.232 µM) in test [5] (read-out: 5-FC MIC (µg/mL)); 0.03 µg/mL (≈ 0.232 µM) in test [6] (read-out: 5-FC MIC (µg/mL)). The MIC in test [7] (read-out: 5-FC MIC (µg/mL)) is > 64 µg/mL; in test [8] (read-out: 5-FC MIC (µg/mL)), 8 µg/mL (≈ 62 µM); in test [9] (read-out: 5-FC MIC (µg/mL)), 0.03 µg/mL (≈ 0.232 µM); in test [10] (read-out: 5-FC MIC (µg/mL)), 0.03 µg/mL (≈ 0.232 µM); in [11] (read-out: 5-FC MIC (µg/mL)), > 64 µg/mL; in [12] (read-out: 5-FC MIC (µg/mL)) it was 0.06 µg/mL (≈ 0.465 µM).
Consider `OC(Cn1cncn1)(Cn1cncn1)c1ccc(F)cc1F` [Fluconazole, fluconazole], for which the MIC in test [1] (setting [14]) was 1 µg/mL (≈ 3.27 µM); in test [2] (setting [14]) it was > 256 µg/mL; in [3] (setting [14]), 2 µg/mL (≈ 6.53 µM); in test [4] (setting [14]) it was 256 µg/mL (≈ 836 µM); in [5] (setting [14]), 4 µg/mL (≈ 13.1 µM); in [6] (setting [14]), 64 µg/mL (≈ 209 µM). For the same compound, the MIC in test [7] (setting [14]) was found to be 0.5 µg/mL (≈ 1.63 µM); in test [8] (setting [14]), 0.06 µg/mL (≈ 0.196 µM); in [9] (setting [14]), 8 µg/mL (≈ 26.1 µM); in test [10] (setting [14]) it was 256 µg/mL (≈ 836 µM); in [11] (setting [14]), 0.5 µg/mL (≈ 1.63 µM); in test [12] (setting [14]) it was 0.5 µg/mL (≈ 1.63 µM).
Consider `CC[C@@H]([C@H](C)O)n1ncn(-c2ccc(N3CCN(c4ccc(OC[C@@H]5CO[C@@](Cn6cncn6)(c6ccc(F)cc6F)C5)cc4)CC3)cc2)c1=O` [Posaconazole, posaconazole], for which the MIC in test [1] (setting [15]) is 0.06 µg/mL (≈ 0.0856 µM); in test [2] (setting [15]), > 8 µg/mL; in test [3] (setting [15]), > 8 µg/mL; in test [4] (setting [15]), 1 µg/mL (≈ 1.43 µM); in test [5] (setting [15]), 0.12 µg/mL (≈ 0.171 µM); in [6] (setting [15]), 0.03 µg/mL (≈ 0.0428 µM). Moreover, the MIC in test [7] (setting [15]) worked out at 0.06 µg/mL (≈ 0.0856 µM); in [8] (setting [15]), 0.015 µg/mL (≈ 0.0214 µM); in test [9] (setting [15]), 0.25 µg/mL (≈ 0.357 µM); in [10] (setting [15]), 1 µg/mL (≈ 1.43 µM); in test [11] (setting [15]) it was 0.03 µg/mL (≈ 0.0428 µM); in [12] (setting [15]), 0.015 µg/mL (≈ 0.0214 µM).
Take `C[C@@H](c1ncncc1F)[C@](O)(Cn1cncn1)c1ccc(F)cc1F` [Voriconazole, voriconazole]: the MIC was 0.015 µg/mL (≈ 0.0429 µM) in [1] (setting [16]); > 8 µg/mL in test [2] (setting [16]); 0.25 µg/mL (≈ 0.716 µM) in [3] (setting [16]); > 8 µg/mL in [4] (setting [16]); 0.06 µg/mL (≈ 0.172 µM) in test [5] (setting [16]); 0.03 µg/mL (≈ 0.0859 µM) in test [6] (setting [16]). Moreover, the MIC was 0.015 µg/mL (≈ 0.0429 µM) in test [7] (setting [16]); 0.004 µg/mL (≈ 0.0115 µM) in [8] (setting [16]); 0.5 µg/mL (≈ 1.43 µM) in [9] (setting [16]); > 8 µg/mL in [10] (setting [16]); 0.004 µg/mL (≈ 0.0115 µM) in test [11] (setting [16]); 0.015 µg/mL (≈ 0.0429 µM) in test [12] (setting [16]).
